Measurements: ChEMBL document CHEMBL3351605, “Biased multicomponent reactions to develop novel bromodomain inhibitors” (J Med Chem, 2014)

target: T1, Bromodomain-containing protein 4 (Homo sapiens, UniProt O60885); assay: Binding affinity to BRD4 (unknown origin) by isothermal titration […]; conditions: not given

| Kd [nM] | SMILES |
| --- | --- |
| 550 | Cc1noc(C)c1-c1ccc(-c2nc3cnccn3c2NC(C)(C)C)cc1 |

test system: not listed separately; assay: Cytotoxicity against BRD4-NUT-expressing human NMC-797 cells assessed as reduction in cell viability after 3 days by ATPlite assay; format: functional, cell-based; conditions: NMC-797, 72 h

| SMILES | EC50 [µM] |
| --- | --- |
| CCOC(=O)[C@]1(C)NC(c2ccc(-c3c(C)noc3C)cc2)C2C(=O)N(CC)C(=O)C21 (some centres undefined) | 9.42 |
| CCCCN1C(=O)c2ccccc2NC(=O)C1c1ccc(-c2c(C)noc2C)c(OC)c1 (centres undefined) | 9.91 |
| Cc1noc(C)c1-c1cccc(C2Nc3ccccc3NC3=C2C(=O)OC3)c1 (centres undefined) | > 100 |
| COc1ccc(-c2cc(-c3ccc(-c4c(C)noc4C)cc3)nc(-c3ccccc3)n2)cc1 | > 100 |
| Cc1noc(C)c1-c1ccc(-c2nc3ccc(Cl)cn3c2NCc2ccccc2)cc1 | 18.4 |
| Cc1noc(C)c1-c1ccc(-c2nc3cnccn3c2NCc2ccccc2)cc1 | 49.1 |
| Cc1noc(C)c1-c1ccc(-c2nc3ccccn3c2NC2CCCCC2)cc1 | 5.07 |
| COc1ccc(Nc2c(-c3ccc(-c4c(C)noc4C)cc3)nc3ccccn23)cc1 | 7.36 |
| COc1ccc(Nc2c(-c3ccc(-c4c(C)noc4C)cc3)nc3ccc(Cl)cn23)cc1 | 20.7 |
| COc1ccc(Nc2c(-c3ccc(-c4c(C)noc4C)cc3)nc3cc(OC)ncn23)cc1 | 11.8 |
| Cc1noc(C)c1-c1ccc(-c2nc3ccccn3c2NC(C)(C)C)cc1 | 2.04 |
| Cc1noc(C)c1-c1ccc(-c2nc3cnccn3c2NC(C)(C)C)cc1 | 0.724 |
| Cc1noc(C)c1-c1ccc(-c2nc3ccc(Cl)cn3c2NC(C)(C)C)cc1 | 2.19 |
| Cc1noc(C)c1-c1ccc(-c2nc3cnccn3c2NC(C)C)cc1 | 0.494 |
| Cc1noc(C)c1-c1ccc(-c2nc3cnccn3c2NC(C)(C)C)cn1 | > 100 |
| Cc1noc(C)c1-c1ccc(-c2nc3cnccn3c2NC(C)(C)C)nc1 | 8.29 |
| Cc1noc(C)c1-c1ccc(-c2nc3cnccn3c2NC(C)(C)C)cc1F | 12.8 |

target: T1, Bromodomain-containing protein 4; assay: Inhibition of BRD4 (unknown origin) by biotinylated-JQ1 based AlphaScreen BRD binding assay; conditions: not given

| IC50 [µM] | SMILES |
| --- | --- |
| 1.7 | Cc1noc(C)c1-c1ccc(C=O)cc1 |
| 16.3 | CCOC(=O)C(C)N(Cc1ccc(-c2c(C)noc2C)cc1)C(=O)c1ccc(OC)cc1 (centres undefined) |
| 69.9 | COc1ccc(-c2cc(-c3ccc(-c4c(C)noc4C)cc3)nc(-c3ccccc3)n2)cc1 |
| > 100 | Cc1ccc2nc(-c3ccc(-c4c(C)noc4C)cc3)c(NCc3ccccc3)n2c1 |
| 7.86 | COc1ccc(Nc2c(-c3ccc(-c4c(C)noc4C)cc3)nn3ccncc23)cc1 |
| 0.637 | Cc1noc(C)c1-c1ccc(-c2nc3cnccn3c2NC(C)(C)C)cc1 |
